Where a SMILES comes first, the peptide text is derived from it. The star is where a group is joined. CF3 = FC(F)(F)*; Moc = COC(=O)*
Columns and labels:
[1] = Time of maximum concentration of compound in rat plasma.; type: ADME, organism-based
Acetylcholinesterase = Acetylcholinesterase (Homo sapiens, UniProt P22303); test: Binding affinity for human erythrocyte Acetylcholinesterase; No inhibition at 188 uM (highest concentration tested)
Kallikrein-1 = Kallikrein-1 (Homo sapiens, UniProt P06870); test: Binding affinity for human urine kallikrein; No inhibition at 188 uM (highest concentration tested)
[2] = Maximum concentration of the unchanged compound in dog plasma, recorded in the period 0-6 hr post dose.; type: ADME, organism-based, Canis lupus familiaris
[3] = Intravenous integrated area under the concentration vs time curve, for compound in hamster plasma; type: ADME, organism-based; settings: cricetinae
[4] = Maximum concentration of the unchanged compound in rat plasma, recorded in the period 0-6 hr post dose.; type: ADME, organism-based
Cricetinae gen. sp. [5] = test: Percent inhibition of elastase-induced lung damage by 10 mg/kg dosed orally, 30 minutes prior to the instillation of 50 ug of elastase; type: functional, Cricetulus griseus
Serine protease 1 [6] = target: T1, Serine protease 1 (Homo sapiens, UniProt P07477); test: Binding affinity for human pancreatic trypsin; […]
[7] = Oral integrated area under the concentration vs time curve, for compound in rat plasma; type: ADME, organism-based
[8] = Half-life of compound in plasma of dog; type: ADME, organism-based, Canis lupus familiaris
[9] = +Ratio of intravenous to oral integrated area under the concentration vs time curve, for compound in dog plasma; type: ADME, organism-based, Canis lupus familiaris
Monoamine oxidase = target: T2, Monoamine oxidase (Homo sapiens, UniProt P21397+P27338); test: Binding affinity for human plasma monoamine oxidase; No inhibition at 188 uM (highest concentration tested); type: cell-free
T2 sequence (P21397 whole entry): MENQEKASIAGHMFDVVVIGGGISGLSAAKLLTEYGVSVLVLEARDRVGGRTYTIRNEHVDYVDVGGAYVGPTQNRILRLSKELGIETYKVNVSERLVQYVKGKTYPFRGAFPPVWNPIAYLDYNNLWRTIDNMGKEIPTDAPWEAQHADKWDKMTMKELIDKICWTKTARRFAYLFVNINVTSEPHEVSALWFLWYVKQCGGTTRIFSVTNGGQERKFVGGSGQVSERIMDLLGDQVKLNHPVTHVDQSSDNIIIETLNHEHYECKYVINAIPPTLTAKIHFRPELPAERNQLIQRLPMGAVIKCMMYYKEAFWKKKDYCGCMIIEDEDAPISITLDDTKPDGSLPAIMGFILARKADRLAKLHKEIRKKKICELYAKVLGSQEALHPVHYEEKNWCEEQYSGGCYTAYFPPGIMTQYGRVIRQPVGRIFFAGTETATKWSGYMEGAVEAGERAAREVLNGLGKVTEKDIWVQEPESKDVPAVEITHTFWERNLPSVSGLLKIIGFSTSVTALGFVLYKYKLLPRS
T2 sequence (P27338 whole entry): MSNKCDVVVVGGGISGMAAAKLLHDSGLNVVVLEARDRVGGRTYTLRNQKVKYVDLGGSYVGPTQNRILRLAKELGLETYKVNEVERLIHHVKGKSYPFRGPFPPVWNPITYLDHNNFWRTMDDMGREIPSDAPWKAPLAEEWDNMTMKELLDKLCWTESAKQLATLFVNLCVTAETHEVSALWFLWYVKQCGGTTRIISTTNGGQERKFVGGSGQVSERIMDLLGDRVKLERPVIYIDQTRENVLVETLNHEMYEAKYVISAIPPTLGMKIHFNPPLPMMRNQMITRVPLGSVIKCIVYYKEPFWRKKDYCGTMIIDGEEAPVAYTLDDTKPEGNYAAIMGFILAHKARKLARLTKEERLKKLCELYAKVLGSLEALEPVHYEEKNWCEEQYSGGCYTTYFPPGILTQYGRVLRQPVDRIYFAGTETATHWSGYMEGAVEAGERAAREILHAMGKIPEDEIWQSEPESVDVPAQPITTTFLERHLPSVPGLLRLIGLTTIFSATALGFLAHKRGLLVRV

[10] = Oral integrated area under the concentration vs time curve, for compound in dog plasma; type: ADME, organism-based, Canis lupus familiaris
Cricetinae gen. sp. [11] = test: Effective dose in the Acute Hemarrhagic Assay model after oral administration; type: functional, Cricetulus griseus
Plasma kallikrein = Plasma kallikrein (Homo sapiens, UniProt P03952); test: Binding affinity for human plasma kallikrein; No inhibition at 188 uM (highest concentration tested); type: cell-free
[12] = Oral integrated area under the concentration vs time curve, for compound in hamster plasma; type: ADME, organism-based; settings: cricetinae
Neutrophil elastase = target: T3, Neutrophil elastase (Homo sapiens, UniProt P08246); test: Binding affinity for human leukocyte elastase
T3 sequence (P08246 whole entry): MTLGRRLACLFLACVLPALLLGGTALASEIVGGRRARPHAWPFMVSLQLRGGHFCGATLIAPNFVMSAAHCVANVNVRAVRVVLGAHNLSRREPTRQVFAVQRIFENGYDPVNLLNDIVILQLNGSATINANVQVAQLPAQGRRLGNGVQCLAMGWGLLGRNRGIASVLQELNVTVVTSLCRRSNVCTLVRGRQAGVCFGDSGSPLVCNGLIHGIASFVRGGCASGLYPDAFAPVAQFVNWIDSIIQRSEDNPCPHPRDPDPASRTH

[13] = Ratio of intravenous to oral integrated area under the concentration vs time curve, for compound in dog plasma; type: ADME, organism-based, Canis lupus familiaris
Serine protease 1 [14] = target: T1, Serine protease 1; test: Binding affinity for human pancreatic trypsin
Cathepsin G = target: T4, Cathepsin G (Homo sapiens, UniProt P08311); test: Binding affinity for human leukocyte cathepsin G; No inhibition at 188 uM (highest concentration tested)
T4 sequence (P08311 whole entry): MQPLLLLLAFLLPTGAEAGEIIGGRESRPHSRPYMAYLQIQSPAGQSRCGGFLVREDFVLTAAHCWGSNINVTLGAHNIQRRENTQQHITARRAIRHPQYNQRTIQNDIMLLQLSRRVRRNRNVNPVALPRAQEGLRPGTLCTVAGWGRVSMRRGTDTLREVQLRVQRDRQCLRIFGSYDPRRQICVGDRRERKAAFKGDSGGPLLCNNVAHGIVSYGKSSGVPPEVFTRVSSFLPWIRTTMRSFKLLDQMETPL

[15] = target: T5, Mast cell carboxypeptidase A (Homo sapiens, UniProt P15088); test: Binding affinity for carboxypeptidase A; No inhibition at 188 uM (highest concentration tested)
T5 sequence (P15088 whole entry): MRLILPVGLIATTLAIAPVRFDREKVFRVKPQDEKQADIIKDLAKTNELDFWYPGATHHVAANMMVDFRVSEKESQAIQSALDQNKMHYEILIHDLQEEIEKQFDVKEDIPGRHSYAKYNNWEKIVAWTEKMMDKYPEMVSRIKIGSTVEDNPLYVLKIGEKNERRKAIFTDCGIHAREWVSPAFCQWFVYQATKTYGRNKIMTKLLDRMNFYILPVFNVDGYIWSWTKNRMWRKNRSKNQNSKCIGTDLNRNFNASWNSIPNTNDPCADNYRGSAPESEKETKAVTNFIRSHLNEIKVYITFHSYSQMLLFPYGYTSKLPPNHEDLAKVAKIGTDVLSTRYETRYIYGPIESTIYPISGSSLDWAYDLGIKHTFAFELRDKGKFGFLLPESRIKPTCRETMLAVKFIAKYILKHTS

Sequence of Kallikrein-1 (P06870 whole entry): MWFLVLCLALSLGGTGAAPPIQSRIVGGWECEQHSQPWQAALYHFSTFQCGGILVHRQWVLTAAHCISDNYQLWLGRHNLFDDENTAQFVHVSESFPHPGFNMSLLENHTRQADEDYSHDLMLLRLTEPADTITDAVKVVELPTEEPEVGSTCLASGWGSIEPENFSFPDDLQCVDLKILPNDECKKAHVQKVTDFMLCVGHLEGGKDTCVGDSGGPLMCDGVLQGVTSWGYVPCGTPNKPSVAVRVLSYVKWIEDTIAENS
Sequence of Plasma kallikrein (P03952 20-390 limits assumed): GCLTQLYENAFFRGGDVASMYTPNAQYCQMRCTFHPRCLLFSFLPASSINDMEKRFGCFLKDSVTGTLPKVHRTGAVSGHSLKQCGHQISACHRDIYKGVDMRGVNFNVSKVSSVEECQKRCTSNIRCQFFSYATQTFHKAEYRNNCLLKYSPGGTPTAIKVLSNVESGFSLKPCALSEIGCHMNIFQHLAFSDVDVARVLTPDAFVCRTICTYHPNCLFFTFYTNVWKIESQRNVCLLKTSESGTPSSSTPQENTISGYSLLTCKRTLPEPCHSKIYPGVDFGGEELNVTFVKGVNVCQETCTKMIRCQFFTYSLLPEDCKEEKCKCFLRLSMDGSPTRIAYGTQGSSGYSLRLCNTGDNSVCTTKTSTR
Sequence of Plasma kallikrein (P03952 391-638 limits assumed): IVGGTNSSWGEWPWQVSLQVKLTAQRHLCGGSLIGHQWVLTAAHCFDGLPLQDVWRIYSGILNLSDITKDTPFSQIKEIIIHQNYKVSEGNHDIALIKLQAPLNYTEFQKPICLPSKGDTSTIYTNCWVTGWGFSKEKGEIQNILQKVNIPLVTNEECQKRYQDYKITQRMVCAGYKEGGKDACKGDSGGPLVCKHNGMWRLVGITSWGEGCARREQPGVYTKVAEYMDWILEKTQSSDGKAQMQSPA
T1 sequence (P07477 whole entry): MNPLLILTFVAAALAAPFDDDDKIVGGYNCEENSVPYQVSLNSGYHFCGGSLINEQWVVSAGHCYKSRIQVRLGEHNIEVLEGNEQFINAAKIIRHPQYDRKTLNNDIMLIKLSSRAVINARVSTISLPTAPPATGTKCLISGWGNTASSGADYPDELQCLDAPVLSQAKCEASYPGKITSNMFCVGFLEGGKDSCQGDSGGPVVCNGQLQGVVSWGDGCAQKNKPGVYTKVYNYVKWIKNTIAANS
Sequence of Acetylcholinesterase (P22303 whole entry): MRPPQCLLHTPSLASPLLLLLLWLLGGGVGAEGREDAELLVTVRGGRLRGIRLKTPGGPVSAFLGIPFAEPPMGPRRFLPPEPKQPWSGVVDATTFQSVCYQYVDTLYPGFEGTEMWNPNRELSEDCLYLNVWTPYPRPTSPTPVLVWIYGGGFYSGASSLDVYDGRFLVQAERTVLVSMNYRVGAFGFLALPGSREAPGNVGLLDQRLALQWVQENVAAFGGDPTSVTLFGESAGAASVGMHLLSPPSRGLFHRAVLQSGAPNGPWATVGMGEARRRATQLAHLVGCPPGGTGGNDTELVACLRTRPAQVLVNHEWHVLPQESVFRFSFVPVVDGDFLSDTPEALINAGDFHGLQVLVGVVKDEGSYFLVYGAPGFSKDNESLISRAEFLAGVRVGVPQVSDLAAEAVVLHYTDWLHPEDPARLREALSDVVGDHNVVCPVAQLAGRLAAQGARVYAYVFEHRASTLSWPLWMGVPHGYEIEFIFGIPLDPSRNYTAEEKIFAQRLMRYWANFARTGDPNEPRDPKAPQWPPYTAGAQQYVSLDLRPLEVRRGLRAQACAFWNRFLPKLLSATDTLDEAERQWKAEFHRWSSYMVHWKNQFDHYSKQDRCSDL

Row | SMILES | Tmax [1] [min] | Ki (Kallikrein-1) | Cmax [2] [ng/mL] | AUC [3] [ng·h/mL] | Cmax [4] [ng/mL] | AUC [7] [ng·h/mL] | half-life [8] [min] | Ki (Monoamine oxidase) | AUC [10] [ng·h/mL] | ED50 (Cricetinae gen. sp. [11]) [mg/kg] | Ki (Plasma kallikrein) | AUC [12] [ng·h/mL] | also measured
1 | COc1ccc(C(=O)N[C@H](C(=O)N2CCC[C@H]2C(=O)N[C@H](C(=O)C(F)(F)F)C(C)C)C(C)C)cc1 (stereo in doubt; 1k) | 15 | No inhibition | 382 | 1360 | 972 | 1400 | 120 | No inhibition | 1250 | 4.9 | No inhibition | 355 | Ki (Acetylcholinesterase): No inhibition; Inhibition (Cricetinae gen. sp. [5]; 10 mg/kg): 84%; Ki (Serine protease 1 [6]): No inhibition; bioavailability [9]: 39%
2 | COC(=O)N[C@H](C(=O)N1CCC[C@H]1C(=O)N[C@H](C(=O)C(F)(F)F)C(C)C)C(C)C (Moc-Val-Pro-Val-CF3) | 30 | No inhibition | 5440 | 2890 | 3690 | 5480 | 48.6 | No inhibition | 6540 | 2 | No inhibition | 2160 | Ki (Neutrophil elastase): 0.013 µM; bioavailability [13]: 70%; Ki (Serine protease 1 [14]): 66.6 µM; inhibition in vivo at 10 mg/kg (Cricetinae gen. sp. [5]; Cricetinae gen. sp., po): 92%; Ki (Cathepsin G): No inhibition; Ki [15]: No inhibition

— ChEMBL document CHEMBL1130170, “Orally active trifluoromethyl ketone inhibitors of human leukocyte elastase” (J Med Chem, 1997)
